Test results as given in the supplement of paper PMC6411743.

Compound: Nc1ncnc2c1ncn2[C@@H]1O[C@H](COP(=O)(O)OP(=O)(O)OP(=O)(O)O)[C@@H](O)[C@H]1O [adenosine triphosphate]
Assay: pEC50 of ATP-induced change in protein thermal stability (2D-TPP)
Summary of the method: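 pEC50 was obtained by fitting dose-response curves for each replicate over pairs of adjacent temperatures, and hits were assigned using permutation-based false discovery rate control. The input came from Jurkat crude lysate treated with five concentrations including vehicle (10 min, room temperature), heated at 12 temperatures from 42 to 63.9 °C for 3 min, then given NP40 and benzonase (60 min, 4 °C). After ultracentrifugation, soluble protein was quantified by TMT LC-MS/MS as median-normalised fold changes versus vehicle per temperature, across three independent experiments.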
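Further: lysate dosed with Na-ATP at 0 0.005 0.05 0.5 and 2 mM.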

Sequence of UniProt Q9BW27 (Q9BW27 whole entry): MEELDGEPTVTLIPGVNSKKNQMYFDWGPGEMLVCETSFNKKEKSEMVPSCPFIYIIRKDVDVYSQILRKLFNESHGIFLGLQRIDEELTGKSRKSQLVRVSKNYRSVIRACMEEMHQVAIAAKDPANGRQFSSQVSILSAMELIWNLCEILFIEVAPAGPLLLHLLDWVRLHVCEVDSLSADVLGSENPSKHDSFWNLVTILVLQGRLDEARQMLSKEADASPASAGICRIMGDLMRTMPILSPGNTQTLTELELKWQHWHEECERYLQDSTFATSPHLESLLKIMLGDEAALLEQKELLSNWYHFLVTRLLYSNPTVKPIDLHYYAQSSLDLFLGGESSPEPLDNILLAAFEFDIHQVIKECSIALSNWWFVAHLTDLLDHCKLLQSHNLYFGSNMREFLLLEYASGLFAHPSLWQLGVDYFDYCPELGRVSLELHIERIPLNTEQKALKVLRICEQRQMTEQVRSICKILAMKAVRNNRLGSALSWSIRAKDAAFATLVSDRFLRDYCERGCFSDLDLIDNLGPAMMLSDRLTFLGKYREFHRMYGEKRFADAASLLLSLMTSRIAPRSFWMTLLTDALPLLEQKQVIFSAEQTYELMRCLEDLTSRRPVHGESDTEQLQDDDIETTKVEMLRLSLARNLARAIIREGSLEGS
Sequence of UniProt Q14657 (Q14657 whole entry): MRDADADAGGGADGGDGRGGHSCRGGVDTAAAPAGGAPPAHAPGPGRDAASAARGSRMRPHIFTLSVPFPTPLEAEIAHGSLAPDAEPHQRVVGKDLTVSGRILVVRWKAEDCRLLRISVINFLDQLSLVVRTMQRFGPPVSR
Sequence of UniProt Q6UB35 (Q6UB35 whole entry): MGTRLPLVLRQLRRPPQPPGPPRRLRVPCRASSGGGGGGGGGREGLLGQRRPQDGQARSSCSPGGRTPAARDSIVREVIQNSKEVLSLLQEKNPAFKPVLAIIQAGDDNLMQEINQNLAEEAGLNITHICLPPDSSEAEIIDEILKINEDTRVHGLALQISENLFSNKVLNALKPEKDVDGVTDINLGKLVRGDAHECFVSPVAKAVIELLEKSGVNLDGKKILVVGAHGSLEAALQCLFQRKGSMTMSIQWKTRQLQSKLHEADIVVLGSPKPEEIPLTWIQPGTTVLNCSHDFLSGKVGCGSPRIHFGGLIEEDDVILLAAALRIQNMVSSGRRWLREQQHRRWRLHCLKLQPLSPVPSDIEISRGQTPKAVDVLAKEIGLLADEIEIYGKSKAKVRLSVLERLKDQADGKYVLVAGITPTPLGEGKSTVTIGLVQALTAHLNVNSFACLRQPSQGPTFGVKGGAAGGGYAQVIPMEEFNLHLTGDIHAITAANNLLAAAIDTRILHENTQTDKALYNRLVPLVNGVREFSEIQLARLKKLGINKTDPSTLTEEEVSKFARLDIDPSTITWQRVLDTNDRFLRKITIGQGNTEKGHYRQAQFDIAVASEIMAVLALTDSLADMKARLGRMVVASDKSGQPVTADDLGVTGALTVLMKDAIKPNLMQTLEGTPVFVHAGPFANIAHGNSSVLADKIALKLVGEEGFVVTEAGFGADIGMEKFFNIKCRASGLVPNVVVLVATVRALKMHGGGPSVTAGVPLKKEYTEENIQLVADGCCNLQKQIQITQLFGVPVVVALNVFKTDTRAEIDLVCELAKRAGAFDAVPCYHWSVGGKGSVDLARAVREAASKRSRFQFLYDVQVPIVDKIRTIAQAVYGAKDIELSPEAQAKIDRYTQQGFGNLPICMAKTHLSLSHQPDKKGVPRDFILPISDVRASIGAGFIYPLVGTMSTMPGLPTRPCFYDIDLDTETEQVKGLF
Sequence of UniProt Q8TBE9 (Q8TBE9 whole entry): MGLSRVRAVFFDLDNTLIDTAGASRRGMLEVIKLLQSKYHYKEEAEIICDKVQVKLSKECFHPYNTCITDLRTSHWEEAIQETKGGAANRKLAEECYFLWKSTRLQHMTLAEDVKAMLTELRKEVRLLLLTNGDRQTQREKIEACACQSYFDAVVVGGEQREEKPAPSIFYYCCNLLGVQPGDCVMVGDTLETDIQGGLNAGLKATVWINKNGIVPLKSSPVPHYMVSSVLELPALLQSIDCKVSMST
Sequence of UniProt Q8NB16 (Q8NB16 whole entry): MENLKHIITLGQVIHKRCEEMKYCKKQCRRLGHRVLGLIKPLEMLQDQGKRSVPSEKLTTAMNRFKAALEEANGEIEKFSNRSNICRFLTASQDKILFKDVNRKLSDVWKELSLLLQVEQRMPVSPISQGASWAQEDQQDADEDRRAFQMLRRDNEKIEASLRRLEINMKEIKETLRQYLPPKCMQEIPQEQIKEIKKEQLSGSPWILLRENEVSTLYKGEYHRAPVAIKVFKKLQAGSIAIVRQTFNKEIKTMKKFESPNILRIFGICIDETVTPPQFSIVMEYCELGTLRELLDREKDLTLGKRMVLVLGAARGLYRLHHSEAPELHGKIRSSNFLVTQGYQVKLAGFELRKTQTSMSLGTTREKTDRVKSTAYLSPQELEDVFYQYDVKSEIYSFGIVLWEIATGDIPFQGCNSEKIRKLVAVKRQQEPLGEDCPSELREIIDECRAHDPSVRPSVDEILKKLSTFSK
Sequence of UniProt Q9H857 (Q9H857 whole entry): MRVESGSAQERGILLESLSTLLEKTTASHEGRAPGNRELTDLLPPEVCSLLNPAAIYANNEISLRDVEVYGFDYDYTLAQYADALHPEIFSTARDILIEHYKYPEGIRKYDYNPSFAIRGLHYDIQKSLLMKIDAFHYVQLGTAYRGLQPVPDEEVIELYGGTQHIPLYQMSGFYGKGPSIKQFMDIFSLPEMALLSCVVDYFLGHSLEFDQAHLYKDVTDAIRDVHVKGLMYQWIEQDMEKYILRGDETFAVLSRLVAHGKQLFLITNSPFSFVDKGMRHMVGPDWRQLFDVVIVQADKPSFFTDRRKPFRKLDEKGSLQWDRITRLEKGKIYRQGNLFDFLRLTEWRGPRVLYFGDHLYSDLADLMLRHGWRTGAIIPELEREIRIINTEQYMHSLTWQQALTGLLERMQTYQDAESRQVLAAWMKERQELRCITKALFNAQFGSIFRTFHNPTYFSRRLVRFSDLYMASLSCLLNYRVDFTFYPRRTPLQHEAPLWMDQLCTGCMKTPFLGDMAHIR
Sequence of UniProt Q9BPW8 (Q9BPW8 whole entry): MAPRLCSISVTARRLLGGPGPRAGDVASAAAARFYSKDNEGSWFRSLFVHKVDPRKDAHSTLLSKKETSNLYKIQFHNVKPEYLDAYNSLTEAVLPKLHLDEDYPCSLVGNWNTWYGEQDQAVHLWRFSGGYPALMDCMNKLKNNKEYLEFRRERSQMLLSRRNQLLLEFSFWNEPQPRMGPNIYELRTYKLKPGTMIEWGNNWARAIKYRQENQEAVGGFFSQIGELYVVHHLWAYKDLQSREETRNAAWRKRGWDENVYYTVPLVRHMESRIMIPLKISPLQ
Sequence of UniProt Q9BQG0 (Q9BQG0 whole entry): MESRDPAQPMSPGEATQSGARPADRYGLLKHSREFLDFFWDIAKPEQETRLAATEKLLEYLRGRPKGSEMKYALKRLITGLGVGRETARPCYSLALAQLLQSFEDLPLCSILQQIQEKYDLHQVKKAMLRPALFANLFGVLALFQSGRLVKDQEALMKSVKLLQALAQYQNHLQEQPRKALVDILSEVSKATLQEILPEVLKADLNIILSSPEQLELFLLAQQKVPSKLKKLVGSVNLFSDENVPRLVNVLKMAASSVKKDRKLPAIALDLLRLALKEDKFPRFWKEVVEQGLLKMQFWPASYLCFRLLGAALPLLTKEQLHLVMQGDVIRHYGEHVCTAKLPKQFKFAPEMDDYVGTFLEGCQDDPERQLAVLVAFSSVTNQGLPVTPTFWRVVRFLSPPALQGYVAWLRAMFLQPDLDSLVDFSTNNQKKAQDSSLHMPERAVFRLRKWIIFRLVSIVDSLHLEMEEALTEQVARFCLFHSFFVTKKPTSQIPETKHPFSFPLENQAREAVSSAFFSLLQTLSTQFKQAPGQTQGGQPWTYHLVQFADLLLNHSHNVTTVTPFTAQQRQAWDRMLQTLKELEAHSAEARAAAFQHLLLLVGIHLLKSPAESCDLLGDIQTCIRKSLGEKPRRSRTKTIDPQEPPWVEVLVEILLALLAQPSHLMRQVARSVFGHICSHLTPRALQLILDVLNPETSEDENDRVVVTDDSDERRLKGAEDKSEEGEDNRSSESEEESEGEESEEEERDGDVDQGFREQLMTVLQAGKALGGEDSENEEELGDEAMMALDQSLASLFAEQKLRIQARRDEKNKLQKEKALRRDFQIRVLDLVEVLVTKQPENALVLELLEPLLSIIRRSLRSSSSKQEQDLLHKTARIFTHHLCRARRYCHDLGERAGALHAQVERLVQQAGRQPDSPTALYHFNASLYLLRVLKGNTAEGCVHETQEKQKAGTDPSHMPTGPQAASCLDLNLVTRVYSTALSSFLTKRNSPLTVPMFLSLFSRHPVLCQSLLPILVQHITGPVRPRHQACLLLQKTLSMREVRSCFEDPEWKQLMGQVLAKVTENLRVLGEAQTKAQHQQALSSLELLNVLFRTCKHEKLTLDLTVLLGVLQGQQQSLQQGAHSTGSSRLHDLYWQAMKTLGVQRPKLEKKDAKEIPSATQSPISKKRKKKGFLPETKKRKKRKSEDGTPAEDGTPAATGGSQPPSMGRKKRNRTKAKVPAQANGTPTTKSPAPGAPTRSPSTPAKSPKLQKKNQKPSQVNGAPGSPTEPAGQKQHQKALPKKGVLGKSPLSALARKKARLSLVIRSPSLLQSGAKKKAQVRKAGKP
Sequence of UniProt P53384 (P53384 whole entry): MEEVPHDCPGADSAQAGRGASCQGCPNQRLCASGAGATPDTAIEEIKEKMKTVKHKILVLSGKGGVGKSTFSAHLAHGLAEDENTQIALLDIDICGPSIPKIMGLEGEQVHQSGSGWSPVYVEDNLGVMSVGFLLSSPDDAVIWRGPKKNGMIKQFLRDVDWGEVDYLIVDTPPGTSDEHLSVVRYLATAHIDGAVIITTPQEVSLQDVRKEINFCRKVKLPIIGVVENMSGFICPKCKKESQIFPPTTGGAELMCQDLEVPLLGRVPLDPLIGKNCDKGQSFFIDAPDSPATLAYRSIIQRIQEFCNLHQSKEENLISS

| pEC50 | Target |
| --- | --- |
| 2.81 | KRI1 (effect direction: destabilized) (UniProt Q8N9T8) |
| 3.03 | LARP7 (effect direction: stabilized) (UniProt Q4G0J3) |
| 3.59 | LARS2 (effect direction: stabilized) (UniProt Q15031) |
| 3.56 | LCLAT1 (effect direction: stabilized) (UniProt Q6UWP7) |
| < 2.7 | LLPH (effect direction: stabilized) (UniProt Q9BRT6) |
| 3.65 | LRPPRC (effect direction: stabilized) (UniProt P42704) |
| 3.85 | LRWD1 (effect direction: stabilized) (UniProt Q9UFC0) |
| 3.7 | MAGED2 (effect direction: destabilized) (UniProt Q9UNF1) |
| < 2.7 | MAPRE1 (effect direction: stabilized) (UniProt Q15691) |
| 3.53 | MCM3 (effect direction: stabilized) (UniProt P25205) |
| 2.78 | MDH2 (effect direction: stabilized) (UniProt P40926) |
| < 2.7 | MED20 (effect direction: stabilized) (UniProt Q9H944) |
| 2.82 | MEPCE (effect direction: stabilized) (UniProt Q7L2J0) |
| < 2.7 | MIER1 (effect direction: stabilized) (UniProt Q8N108) |
| 3.44 | MLKL (effect direction: stabilized) (UniProt Q8NB16) |
| 3.21 | MOB2 (effect direction: stabilized) (UniProt Q70IA6) |
| 4.49 | MRPL19 (effect direction: destabilized) (UniProt P49406) |
| 4.46 | MRPS22 (effect direction: destabilized) (UniProt P82650) |
| 3.89 | MRPS23 (effect direction: destabilized) (UniProt Q9Y3D9) |
| < 2.7 | MRTO4 (effect direction: destabilized) (UniProt Q9UKD2) |
| 3.15 | MTHFD2 (effect direction: stabilized) (UniProt P13995) |

| pEC50 | Target |
| --- | --- |
| 3.62 | MTHFSD (effect direction: stabilized) (UniProt Q2M296) |
| 3.13 | MTR (effect direction: stabilized) (UniProt Q99707) |
| 4.1 | MYH10 (effect direction: stabilized) (UniProt P35580) |
| 3.08 | NANP (effect direction: destabilized) (UniProt Q8TBE9) |
| 4.56 | NAPA (effect direction: destabilized) (UniProt P54920) |
| 3.66 | NFKB1 (effect direction: stabilized) (UniProt P19838) |
| 3.06 | NMT1 (effect direction: stabilized) (UniProt P30419) |
| 2.82 | NT5C2 (effect direction: stabilized) (UniProt P49902) |
| < 2.7 | NT5DC2 (effect direction: stabilized) (UniProt Q9H857) |
| 3.44 | NUBP1 (effect direction: stabilized) (UniProt P53384) |
| < 2.7 | NUDC (effect direction: stabilized) (UniProt Q9Y266) |
| 3.45 | NUMB (effect direction: stabilized) (UniProt P49757) |
| < 2.7 | NUP210 (effect direction: stabilized) (UniProt Q8TEM1) |
| 3.3 | OGDH (effect direction: stabilized) (UniProt Q02218) |
| 3.09 | OPA1 (effect direction: destabilized) (UniProt O60313) |
| 3.4 | OSBPL8 (effect direction: stabilized) (UniProt Q9BZF1) |
| < 2.7 | OXA1L (effect direction: stabilized) (UniProt Q15070) |
| 3.17 | PA2G4 (effect direction: destabilized) (UniProt Q9UQ80) |
| 3.23 | PABPN1 (effect direction: destabilized) (UniProt Q86U42) |
| < 2.7 | PACSIN2 (effect direction: stabilized) (UniProt Q9UNF0) |

Continued, target first:

| Target | pEC50 |
| --- | --- |
| KPNB1 (effect direction: stabilized) (UniProt Q14974) | 2.96 |
| LAGE3 (effect direction: stabilized) (UniProt Q14657) | 3.86 |
| LARP1 (effect direction: stabilized) (UniProt Q6PKG0) | < 2.7 |
| LEMD2 (effect direction: stabilized) (UniProt Q8NC56) | 3.8 |
| LUC7L2 (effect direction: stabilized) (UniProt Q9Y383) | 3.22 |
| MACROD1 (effect direction: stabilized) (UniProt Q9BQ69) | 3.27 |
| MAP3K4 (effect direction: stabilized) (UniProt Q9Y6R4) | 3.63 |
| MAP4K5 (effect direction: stabilized) (UniProt Q9Y4K4) | 3.41 |
| MARS2 (effect direction: stabilized) (UniProt Q96GW9) | 3.24 |
| MCM5 (effect direction: stabilized) (UniProt P33992) | 3.59 |
| MDH1 (effect direction: stabilized) (UniProt P40925) | 5 |
| MDP1 (effect direction: destabilized) (UniProt Q86V88) | < 2.7 |
| MOCS3 (effect direction: stabilized) (UniProt O95396) | 3.95 |
| MOV10 (effect direction: destabilized) (UniProt Q9HCE1) | 3.24 |
| MRPL2 (effect direction: destabilized) (UniProt Q5T653) | 3.46 |
| MRPL30 (effect direction: destabilized) (UniProt Q8TCC3) | 3.37 |
| MRPS6 (effect direction: destabilized) (UniProt P82932) | 3.58 |
| MSI2 (effect direction: stabilized) (UniProt Q96DH6) | < 2.7 |
| MSN (effect direction: destabilized) (UniProt P26038) | 3.04 |
| MTHFD1L (effect direction: stabilized) (UniProt Q6UB35) | 3.33 |
| MYBBP1A (effect direction: destabilized) (UniProt Q9BQG0) | 2.77 |
| MYH9 (effect direction: stabilized) (UniProt P35579) | 3.6 |
| NAGK (effect direction: stabilized) (UniProt Q9UJ70) | 3.15 |
| NAP1L1 (effect direction: stabilized) (UniProt P55209) | < 2.7 |
| NAP1L4 (effect direction: stabilized) (UniProt Q99733) | < 2.7 |

| Target | pEC50 |
| --- | --- |
| NARS2 (effect direction: stabilized) (UniProt Q96I59) | 4.1 |
| NAT14 (effect direction: stabilized) (UniProt Q8WUY8) | 3.34 |
| NCAPD2 (effect direction: stabilized) (UniProt Q15021) | 3.56 |
| NCAPG (effect direction: stabilized) (UniProt Q9BPX3) | 3.93 |
| NCAPH (effect direction: stabilized) (UniProt Q15003) | 3.5 |
| NCL (effect direction: stabilized) (UniProt P19338) | < 2.7 |
| NEDD8 (effect direction: destabilized) (UniProt Q15843) | 3.02 |
| NEK9 (effect direction: stabilized) (UniProt Q8TD19) | 3.19 |
| NFATC2 (effect direction: stabilized) (UniProt Q13469) | 3.21 |
| NIPSNAP1 (effect direction: stabilized) (UniProt Q9BPW8) | 3.75 |
| NKTR (effect direction: stabilized) (UniProt P30414) | 3.22 |
| NMNAT1 (effect direction: stabilized) (UniProt Q9HAN9) | 3.08 |
| NOP2 (effect direction: destabilized) (UniProt P46087) | 2.94 |
| NPM1 (effect direction: stabilized) (UniProt P06748) | 2.88 |
| NPM3 (effect direction: stabilized) (UniProt O75607) | < 2.7 |
| NRF1 (effect direction: stabilized) (UniProt Q16656) | 2.97 |
| NSDHL (effect direction: stabilized) (UniProt Q15738) | < 2.7 |
| NUDT2 (effect direction: stabilized) (UniProt P50583) | 3.31 |
| NUP85 (effect direction: stabilized) (UniProt Q9BW27) | < 2.7 |
| NUP133 (effect direction: stabilized) (UniProt Q8WUM0) | 2.84 |
| NUP188 (effect direction: stabilized) (UniProt Q5SRE5) | < 2.7 |
| ORC6 (effect direction: stabilized) (UniProt Q9Y5N6) | 3.73 |
| PAF1 (effect direction: stabilized) (UniProt Q8N7H5) | 3.1 |
| PANK2 (effect direction: stabilized) (UniProt Q9BZ23) | 3.02 |
